Four compounds from patent US20250368667A1, “USP1 INHIBITOR” (Shanghai Qilu Pharmaceutical Research and Development …, priority 2022, published 2025) can be followed below.

One data set concerns NCI-H1693 cells. Nature of the data set: USP1 CTG test: NCI-H1693 cell killing experiment. The conditions noted are these: 6 days, CTG detection, read-out: IC50 (inhibition of NCI-H1693 cells). The data set is classed as cell-based. The procedure: Test Example 2 USP1 CTG Test Method
NCI-H1693 cell killing experiment was used to verify the biological activity of USP1i compound in vitro.
NCI-H1693 cells were purchased from ATCC (article number: CRL-5866) and cultured in a cell incubator with 5% CO2 (containing 5% CO2 and 95% air by volume) at 37° C.; 1640 complete medium: comprising 94 wt % RPMI-1640 liquid medium (Gibco, article number: 11875-093), 5 wt % FBS (Gibco, article number: 10099-141), and 1 wt % Pen Strep (Gibco, article number: 15070-063): Fluorescent 384-well plate (Perkin Elmer, article number: 6007279); Trypsin (Gibco, article number: 25200056); CTG Buffer (CellTiter-Glo® 2.0 Cell Viability Assay, Promega, article number: G9241).
[formula] • X: Log10 (compound complex concentration); • Y: corresponding response;
Top and Bottom: corresponding response corresponding to the same unit of Y; and it is noted that: • if X is not the logarithm of dosage, data shall be returned and converted; • if any baseline response is subtracted, the Bottom is set as a constant value of 0.0; and fitting the data to get the IC50 value; • wherein the fitting conditions may be adjusted according to the specific conditions of the data; specifically, Constraint conditions of Bottom, TOP and HillSlope may be adjusted appropriately so as to achieve the curve that is most in line with the actual situation.

Data set [1] is described as follows: Pharmacokinetic determination in male CD1 mice. In kind it is in vivo. The settings on record: PO 10 mg/kg, plasma. The procedure: Test Example 3 Pharmacokinetic Determination of the Compound of the Present Application in Male CD1 Mice
Male CD1 mice were used as test animals. After intravenous injection and oral administration, plasma samples were collected at specific time points. The concentration of the compound in plasma was detected by LC-MS/MS, and the parameters of drug metabolism and pharmacokinetics (DMPK) were calculated to evaluate the pharmacokinetic characteristics of the compounds in plasma of mice.
Compounds of Table 5 in this application; the structural formula and preparation method of compound 88 are shown in the above examples. The structural formula of comparative compound 1 is: […]
Male CD1 mice having a weight of between 20 g and 30 g; supplied by Vital River.
Administration of the compound in this application: both group IV (intravenous injection group) and group PO (oral administration group) consist of 3 mice; for group IV, the dosage is 1 mg/kg and the administration volume is 5 mL/kg; and for group PO, the dosage is 10 mg/kg and the administration volume is 10 mL/kg. The administration solvent was 5 vol % DMSO+10 vol % Soltol (Kolliphor HS 15)+85 vol % Saline (physiological saline).
• 0.02 to 0.03 mL of blood was collected from the saphenous vein in group IV at 0.083, 0.25, 0.5, 1, 2, 4, 8 and 24 hours after administration and from the saphenous vein in group PO at 0.25, 0.5, 1, 2, 4, 8 and 24 hours after administration. The collected samples were placed in EDTA-K2 test tube; plasma was separated by centrifuging at 4° C. for […], which was then stored at −80° C. until analysis of the samples.
Mice plasma samples were treated by: • 1) adding 200 μL acetonitrile to 10 μL plasma sample for precipitation, vortex mixing the mixture for 30 seconds and centrifuging at 4° C. and 3900 rpm for 15 minutes; and • 2) diluting the obtained supernatant with water for 3 folds, and analyzing the concentration of compounds to be detected by LC/MS/MS.

For data set [2], the target named is recombinant human His6-USP1/His6-UAF1 composite protein (Homo sapiens (Human), UniProt O94782). Nature of the data set: USP1 enzyme activity detection (Ub-Rho fluorescence). In kind it is biochemical. The settings on record: USP1/UAF1, Ub-Rho substrate 300 nM, 1 hour pre-incubation; read-out: IC50 (enzymatic inhibition of USP1).
Data set [3] can be described thus: Pharmacokinetic determination in male Beagle dogs. The data set is classed as in vivo. The conditions noted are these: IV 0.2 mg/kg. The procedure:
Test Example 4 Pharmacokinetic Determination of Compounds of the Present Application in Male Beagle Dogs
Male Beagle dogs were used as test animals. After intravenous injection and oral administration, plasma samples were collected at specific time points. The concentration of the compound in plasma was detected by LC-MS/MS, and the DMPK parameters were calculated to evaluate the pharmacokinetic characteristics of the compound in dog plasma.
Compounds of Table 6 in this application. […] The structural formula of KSQ-4279 is: […]
Male Beagle dogs having a weight of 9 to 13 kg, supplied by Beijing Mars Biotechnology Co., Ltd.
Administration information of the compound in this application: both group IV (intravenous injection group) and group PO (oral administration group) consist of 3 dogs; for group IV, the dosage was 0.2 mg/kg and the administration volume was 0.5 mL/kg; for group PO, the dosage was 3 mg/kg and the administration volume was 3 mL/kg. The administration solvent was 5 vol % DMSO+10 vol % Solutol (Kolliphor HS 15)+85 vol % Saline (physiological saline).
0.5 mL of blood was collected from the head vein in group IV at 0.083, 0.25, 0.5, 1, 2, 4, 8 and 24 hours respectively after administration, and from the head vein in group PO at 0.25, 0.5, 1, 2, 4, 8 and 24 hours respectively after administration. The collected samples were placed in EDTA-K2 test tube; plasma was separated by centrifuging at 2 to 8° C. and 2000 g for 10 minutes, which was then stored at −80° C. until analysis of the samples.
Dog plasma samples were treated by: • 1) adding 200 μL acetonitrile to 50 μL plasma sample for precipitation, vortex mixing the mixture for 30 seconds, and centrifuging at 4° C. and 3900 rpm for 15 minutes; and • 2) diluting the obtained supernatant with water for 3 folds, and analyzing the concentration of the compounds to be detected by LC/MS/MS.

In data set [4] the test system is OV0589 Patient-derived Xenograft (PDX). Kind of data set: Pharmacodynamic experiment of OV0589 patient-derived xenograft (PDX). In kind it is in vivo, Female BALB/c nude mice. The conditions noted are these: oral; for TGI % (tumor growth inhibition rate): Day 36, OV0589 PDX in BALB/c nude mice. As for the experimental part:
Test Example 5 Pharmacodynamic Experiment of OV0589 Patient-derived Xenograft (PDX)
Female BALB/c nude mice were used as test animals. After oral administration of the compound of this application, the tumor was measured and weighed regularly, and the tumor growth inhibition and tolerance in different administration groups were investigated. After the investigate, plasma and tumor were collected at a specific time point for pharmacokinetic analysis/pharmacodynamics (PK/PD) analysis.
Tumor-bearing mouse tumor (R10P8) was purchased from Sino-American Crown Biotechnology (Beijing) Co., Ltd. Ubiquityl-PCNA (Lys 164) (D5C7P) mAb antibody was purchased from Cell Siganaling company, and the article number is 13439S. PCNA (PC10) antibody was purchased from Santa Cruz company, and the article number is se-56.
Female BALB/c nude mice having a weight of between 21 and 25 g; supplier: Beijing An Kai Yibo Biotechnology Co., Ltd.
Under a temperature of 20° C. to 26° C. and a humidity of 30% to 70% and alternate illumination day and night, when the tumor (R10P8) of the tumor-bearing mice grew to a diameter of about 1 cm (the tumor size reaches 50 to 800 mm^3), the tumor was collected and cut into tumor blocks of about 2 to 3 mm^3, and the tumor block (R10P8) was inoculated subcutaneously into the right anterior scapula of female BALB/c nude mice. The tumor growth in mice was observed regularly. After 35 days of inoculation, when the tumor (R10P8) grew to an average volume of about 150 mm^3 (the range of enrollment was 86.54 mm^3 to […]), according to the tumor size and the weight of mice, StudyDirector™ (version No. 3.1.399.19, supplied by Studylog System, Inc., S. San Francisco, California, USA) was used for random grouping, and the administration was performed for these groups the next day.
Twelve mice were randomly divided into four groups, namely, G1 to G4. Group G1 is the solvent control group, and the solvent is: 10 vol % DMSO+20 vol % Solutol+70 vol % water+5 vol % DMSO+10 vol % Solutol+85 vol % saline. Group G2 was orally administrated with KSQ4279 at a dosage of 100 mg/kg (npk), and the solvent was 5 vol % DMSO+10 vol % Solutol+85 vol % saline.
The tumor growth in mice was observed regularly, and the tumor volume was measured (see FIG. 1), and the change of body weight of mice was observed regularly (see FIG. 2). After 36 days of administration, plasma and tumor were collected for PK/PD analysis.
In general terms: In xenograft studies the graft and the host belong to different species.

As a reminder, the IC50 is the concentration at which inhibition is half-maximal. What is called AUC(0-t) is the area under the concentration-time curve up to a stated or last time point. As a reminder, the clearance is the rate of elimination divided by the concentration.

Read-outs that look alike come from different tables or passages of the source.

recombinant human His6-USP1/His6-UAF1 composite protein, sequence (O94782 whole entry): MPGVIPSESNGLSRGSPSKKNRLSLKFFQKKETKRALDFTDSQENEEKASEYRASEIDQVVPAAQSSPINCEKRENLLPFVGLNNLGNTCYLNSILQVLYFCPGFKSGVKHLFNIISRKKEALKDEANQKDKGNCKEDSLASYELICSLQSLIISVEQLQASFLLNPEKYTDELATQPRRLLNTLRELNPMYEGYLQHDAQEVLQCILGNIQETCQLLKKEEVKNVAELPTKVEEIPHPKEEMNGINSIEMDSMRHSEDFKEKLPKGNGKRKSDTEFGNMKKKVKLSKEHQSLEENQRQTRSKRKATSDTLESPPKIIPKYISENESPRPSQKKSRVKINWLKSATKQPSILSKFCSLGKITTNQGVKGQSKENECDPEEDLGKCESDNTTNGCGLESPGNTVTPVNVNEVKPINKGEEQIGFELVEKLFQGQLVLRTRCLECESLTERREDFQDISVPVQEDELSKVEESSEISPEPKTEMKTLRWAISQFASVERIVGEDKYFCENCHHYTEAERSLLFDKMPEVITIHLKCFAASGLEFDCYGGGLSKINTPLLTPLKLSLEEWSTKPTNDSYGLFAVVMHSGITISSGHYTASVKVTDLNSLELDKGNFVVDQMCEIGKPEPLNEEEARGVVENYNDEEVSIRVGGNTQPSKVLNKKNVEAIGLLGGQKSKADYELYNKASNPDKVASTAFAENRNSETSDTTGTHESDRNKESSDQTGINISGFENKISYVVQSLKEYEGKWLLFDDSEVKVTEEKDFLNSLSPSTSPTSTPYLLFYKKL
recombinant human His6-USP1/His6-UAF1 composite protein, sequence (Q8TAF3 whole entry partner): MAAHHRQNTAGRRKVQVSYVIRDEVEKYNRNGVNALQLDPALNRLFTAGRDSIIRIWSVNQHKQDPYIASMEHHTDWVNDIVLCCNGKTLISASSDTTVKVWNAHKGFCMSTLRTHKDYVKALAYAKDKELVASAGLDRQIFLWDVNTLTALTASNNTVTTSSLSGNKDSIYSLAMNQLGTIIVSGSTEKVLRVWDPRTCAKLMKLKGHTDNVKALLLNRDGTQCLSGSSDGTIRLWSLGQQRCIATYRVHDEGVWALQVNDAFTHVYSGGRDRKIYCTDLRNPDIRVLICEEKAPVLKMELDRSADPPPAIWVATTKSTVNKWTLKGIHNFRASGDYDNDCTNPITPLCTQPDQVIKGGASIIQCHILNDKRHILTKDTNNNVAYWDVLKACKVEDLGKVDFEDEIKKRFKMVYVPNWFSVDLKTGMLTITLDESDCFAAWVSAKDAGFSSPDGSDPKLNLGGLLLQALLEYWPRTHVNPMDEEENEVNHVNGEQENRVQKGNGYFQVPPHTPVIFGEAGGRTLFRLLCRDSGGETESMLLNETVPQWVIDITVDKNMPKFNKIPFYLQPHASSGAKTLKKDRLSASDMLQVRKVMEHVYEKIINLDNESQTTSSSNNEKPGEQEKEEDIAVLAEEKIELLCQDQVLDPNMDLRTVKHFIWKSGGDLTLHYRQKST

For `COc1ncnc(C2CC2)c1-c1ncc2c(n1)n(Cc1ccc(-c3nc(C(F)(F)F)cn3C)cc1)c1nccn21` [Comparative compound 1, reference compound], the concentration for half-maximal inhibition (IC50) in the data set on NCI-H1693 cells (Homo sapiens, 144 h) came out at 53.7 nM. Besides, in data set [1], the Blood concentration is 2246 and the Curve area came to 6558.

As for `COc1ncnc(C2CC2)c1-c1ncc2c3cn(C)nc3n(Cc3ccc(-c4nc(C(F)(F)F)cn4C(C)C)cc3)c2n1` [Compound 88, 6-(4-cyclopropyl-6-methoxypyrimidin-5-yl)-8-(4-(1-isopropyl-4-(trifluoromethyl)-1H-imidazol-2-yl)benzyl)-2-methyl-2,8-dihydropyrazolo[4′,3′: 4,5]pyrrolo[2,3-d]pyrimidine], the half-inhibitory concentration (IC50) in data set [2] came out at 4.5 nM. Moreover, the IC50 with NCI-H1693 cells (Homo sapiens, 144 h) worked out at 9.2 nM. Further, in data set [1], the Blood concentration came to 4803 and the Curve area was determined as 44062. Besides, in data set [3] (dog, plasma), the AUC(0-t) was 236 ng·h/mL. In data set [3] (dog, plasma, read-out: CL (overall clearance rate) (converted)), the clearance is 15 mL/min/kg.

For the compound `COc1ncnc(C2CC2)c1-c1ncc2c3ccc(C#N)cc3n(Cc3ccc4c(c3)CCCn3cc(C(F)(F)F)nc3-4)c2n1` [Compound 58], in the data set on NCI-H1693 cells, the half-maximal inhibitory concentration (IC50) stood at 13 nM. In addition, in data set [3], the AUClast came out at 190 ng·h/mL and the “CL (overall clearance rate)” value was 15.8 mL/min/kg. The “TGI % (tumor growth inhibition rate)” value in data set [4] (30 mg/kg) came out at 97.5%. For the same compound, in data set [4] (100 mg/kg), the “TGI % (tumor growth inhibition rate)” value is 107.7%. Besides, in data set [4] (100 mg/kg, OV0589 PDX), the “inhibitory effect on tumor growth (FIG. 1)” value is reported as “the best inhibitory effect on tumor growth”.

As for `COc1ncnc(C2CC2)c1-c1ncc2c(n1)n(Cc1ccc(-c3nc(C(F)(F)F)cn3C)cc1)c1nncn21` [Comparative compound 2, reference compound], in the data set with NCI-H1693 cells (Homo sapiens, 144 h), the half-maximal inhibitory concentration (IC50) turned out to be 174 nM.
